This is an account of results in PMC10946806, “Development of Bifunctional, Raman Active Diyne‐Girder Stapled α‐Helical Peptides” (Chemistry (Weinheim an Der Bergstrasse, Germany), 2023).

Data set [1] in a line: Circular dichroism (CD) spectroscopy, % helicity. In kind it is physicochemical. Particulars: for percentage helicity (in words): peptide 50 μM in PBS pH 7.4, 222 nm; for percentage helicity at 222 nm from mean residue ellipticity: peptide 50 μM in PBS pH 7.4, room temperature, MRE at 222 nm converted by Equation S2. The procedure:
Circular dichroism (CD): CD spectra were obtained using a JASCO J-810 CD spectrometer. […] Percentage helicities can be calculated for α-helical peptides. […] […] Equation S1. MRE calculation. […] To 100 μL of peptide solution was added 100 11
In general terms: CD spectra are sensitive to the conformation of chiral molecules.

Data set [2] is described as follows: on-resin Glaser oxidative coupling of two terminal alkynes (i,i+7 side chains) to 1,3-diyne; CuCl 5 eq, 4,4'-bis(hydroxymethyl)-2,2'-bipyridine 7.5 eq, DIPEA 20 eq, microwave. Particulars: the molecule shown is the open-chain precursor, DMF, 10.0 mM, 60.0 °C, 3.0 h.

As to “FTU-Ahx-AKS8YAR(Nle)GRS8LKEIAK-NH2 (sidechain bridge or staple) [compound 33, diyne-girder stapled T-STAR peptide, C16 bridge, SS]”, in data set [1], the “percentage helicity (in words)” value is “high”.

Regarding `C#CCCCCCC[C@@](C)(NC(=O)[C@H](CCCNC(=N)NS(=O)(=O)c1c(C)c(C)c2c(c1C)CC(C)(C)O2)NC(=O)CNC(=O)[C@H](CCCC)NC(=O)[C@H](CCCNC(=N)NS(=O)(=O)c1c(C)c(C)c2c(c1C)CC(C)(C)O2)NC(=O)[C@H](C)NC(=O)[C@H](Cc1ccc(OC(C)(C)C)cc1)NC(=O)[C@](C)(CCCCCCC#C)NC(=O)[C@H](CCCCNC(=O)OC(C)(C)C)NC(=O)[C@H](C)NC(=O)CCCCCNC(=O)OCC1c2ccccc2-c2ccccc21)C(=O)N[C@@H](CC(C)C)C(=O)N[C@@H](CCCCNC(=O)OC(C)(C)C)C(=O)N[C@@H](CCC(=O)OC(C)(C)C)C(=O)N[C@H](C(=O)N[C@@H](C)C(=O)N[C@@H](CCCCNC(=O)OC(C)(C)C)C(N)=O)[C@@H](C)CC`, the ring closure, conversion by HPLC in data set [2] (38-membered ring) amounted to 68%.

Turning to “FTU-Ahx-AKR8YAR(Nle)GRR8LKEIAK-NH2 (sidechain bridge or staple) [compound 34, diyne-girder stapled T-STAR peptide, C16 bridge, RR]”, the “percentage helicity at 222 nm from mean residue ellipticity” value in data set [1] came out at 33%.

In turn, `C#CCCCCC[C@@](C)(NC(=O)[C@H](CCCNC(=N)NS(=O)(=O)c1c(C)c(C)c2c(c1C)CC(C)(C)O2)NC(=O)CNC(=O)[C@H](CCCC)NC(=O)[C@H](CCCNC(=N)NS(=O)(=O)c1c(C)c(C)c2c(c1C)CC(C)(C)O2)NC(=O)[C@H](C)NC(=O)[C@H](Cc1ccc(OC(C)(C)C)cc1)NC(=O)[C@](C)(CCCCCC#C)NC(=O)[C@H](CCCCNC(=O)OC(C)(C)C)NC(=O)[C@H](C)NC(=O)CCCCCNC(=O)OCC1c2ccccc2-c2ccccc21)C(=O)N[C@@H](CC(C)C)C(=O)N[C@@H](CCCCNC(=O)OC(C)(C)C)C(=O)N[C@@H](CCC(=O)OC(C)(C)C)C(=O)N[C@H](C(=O)N[C@@H](C)C(=O)N[C@@H](CCCCNC(=O)OC(C)(C)C)C(N)=O)[C@@H](C)CC` registered a ring closure, conversion by HPLC in data set [2] (36-membered ring) of 52%.

For `C#CCCCCCC[C@](C)(NC(=O)[C@H](CCCCNC(=O)OC(C)(C)C)NC(=O)[C@H](C)NC(=O)CCCCCNC(=O)OCC1c2ccccc2-c2ccccc21)C(=O)N[C@@H](Cc1ccc(OC(C)(C)C)cc1)C(=O)N[C@@H](C)C(=O)N[C@@H](CCCNC(=N)NS(=O)(=O)c1c(C)c(C)c2c(c1C)CC(C)(C)O2)C(=O)N[C@@H](CCCC)C(=O)NCC(=O)N[C@@H](CCCNC(=N)NS(=O)(=O)c1c(C)c(C)c2c(c1C)CC(C)(C)O2)C(=O)N[C@@](C)(CCCCCCC#C)C(=O)N[C@@H](CC(C)C)C(=O)N[C@@H](CCCCNC(=O)OC(C)(C)C)C(=O)N[C@@H](CCC(=O)OC(C)(C)C)C(=O)N[C@H](C(=O)N[C@@H](C)C(=O)N[C@@H](CCCCNC(=O)OC(C)(C)C)C(N)=O)[C@@H](C)CC`, the ring closure, conversion by HPLC in data set [2] (38-membered ring) is 100%.

As to “FTU-Ahx-AKR8YAR(Nle)GRS8LKEIAK-NH2 (sidechain bridge or staple) [compound 35, diyne-girder stapled T-STAR peptide, C16 bridge, RS]”, in data set [1], the “percentage helicity (in words)” value is reported as “high”.

As for “FTU-Ahx-AKR7YAR(Nle)GRR7LKEIAK-NH2 (sidechain bridge or staple) [compound 30, diyne-girder stapled T-STAR peptide, C14 bridge, RR]”, in data set [1], the “percentage helicity at 222 nm from mean residue ellipticity” value is reported as 40%.

Consider `C#CCCCCC[C@H](NC(=O)[C@H](CCCNC(=N)NS(=O)(=O)c1c(C)c(C)c2c(c1C)CC(C)(C)O2)NC(=O)CNC(=O)[C@H](CCCC)NC(=O)[C@H](CCCNC(=N)NS(=O)(=O)c1c(C)c(C)c2c(c1C)CC(C)(C)O2)NC(=O)[C@H](C)NC(=O)[C@H](Cc1ccc(OC(C)(C)C)cc1)NC(=O)[C@H](CCCCCC#C)NC(=O)[C@H](CCCCNC(=O)OC(C)(C)C)NC(=O)[C@H](C)NC(=O)CCCCCNC(=O)OCC1c2ccccc2-c2ccccc21)C(=O)N[C@@H](CC(C)C)C(=O)N[C@@H](CCCCNC(=O)OC(C)(C)C)C(=O)N[C@@H](CCC(=O)OC(C)(C)C)C(=O)N[C@H](C(=O)N[C@@H](C)C(=O)N[C@@H](CCCCNC(=O)OC(C)(C)C)C(N)=O)[C@@H](C)CC`, for which the ring closure, conversion by HPLC in data set [2] (36-membered ring) was found to be 38%.

`C#CCCCC[C@](C)(NC(=O)[C@H](CCCCNC(=O)OC(C)(C)C)NC(=O)[C@H](C)NC(=O)CCCCCNC(=O)OCC1c2ccccc2-c2ccccc21)C(=O)N[C@@H](Cc1ccc(OC(C)(C)C)cc1)C(=O)N[C@@H](C)C(=O)N[C@@H](CCCNC(=N)NS(=O)(=O)c1c(C)c(C)c2c(c1C)CC(C)(C)O2)C(=O)N[C@@H](CCCC)C(=O)NCC(=O)N[C@@H](CCCNC(=N)NS(=O)(=O)c1c(C)c(C)c2c(c1C)CC(C)(C)O2)C(=O)N[C@@](C)(CCCCC#C)C(=O)N[C@@H](CC(C)C)C(=O)N[C@@H](CCCCNC(=O)OC(C)(C)C)C(=O)N[C@@H](CCC(=O)OC(C)(C)C)C(=O)N[C@H](C(=O)N[C@@H](C)C(=O)N[C@@H](CCCCNC(=O)OC(C)(C)C)C(N)=O)[C@@H](C)CC`: the ring closure, conversion by HPLC in data set [2] (34-membered ring) was 65%.

In data set [2] (32-membered ring), `C#CCCC[C@](C)(NC(=O)[C@H](CCCCNC(=O)OC(C)(C)C)NC(=O)[C@H](C)NC(=O)CCCCCNC(=O)OCC1c2ccccc2-c2ccccc21)C(=O)N[C@@H](Cc1ccc(OC(C)(C)C)cc1)C(=O)N[C@@H](C)C(=O)N[C@@H](CCCNC(=N)NS(=O)(=O)c1c(C)c(C)c2c(c1C)CC(C)(C)O2)C(=O)N[C@@H](CCCC)C(=O)NCC(=O)N[C@@H](CCCNC(=N)NS(=O)(=O)c1c(C)c(C)c2c(c1C)CC(C)(C)O2)C(=O)N[C@@](C)(CCCC#C)C(=O)N[C@@H](CC(C)C)C(=O)N[C@@H](CCCCNC(=O)OC(C)(C)C)C(=O)N[C@@H](CCC(=O)OC(C)(C)C)C(=O)N[C@H](C(=O)N[C@@H](C)C(=O)N[C@@H](CCCCNC(=O)OC(C)(C)C)C(N)=O)[C@@H](C)CC` came in with a ring closure, conversion by HPLC of 52%.

With `C#CCCCCCC[C@@](C)(NC(=O)[C@H](CCCCNC(=O)OC(C)(C)C)NC(=O)[C@H](C)NC(=O)CCCCCNC(=O)OCC1c2ccccc2-c2ccccc21)C(=O)N[C@@H](Cc1ccc(OC(C)(C)C)cc1)C(=O)N[C@@H](C)C(=O)N[C@@H](CCCNC(=N)NS(=O)(=O)c1c(C)c(C)c2c(c1C)CC(C)(C)O2)C(=O)N[C@@H](CCCC)C(=O)NCC(=O)N[C@@H](CCCNC(=N)NS(=O)(=O)c1c(C)c(C)c2c(c1C)CC(C)(C)O2)C(=O)N[C@](C)(CCCCCCC#C)C(=O)N[C@@H](CC(C)C)C(=O)N[C@@H](CCCCNC(=O)OC(C)(C)C)C(=O)N[C@@H](CCC(=O)OC(C)(C)C)C(=O)N[C@H](C(=O)N[C@@H](C)C(=O)N[C@@H](CCCCNC(=O)OC(C)(C)C)C(N)=O)[C@@H](C)CC`, the ring closure, conversion by HPLC in data set [2] (38-membered ring) turned out to be 93%.

In data set [2] (36-membered ring), `C#CCCCCC[C@](C)(NC(=O)[C@H](CCCCNC(=O)OC(C)(C)C)NC(=O)[C@H](C)NC(=O)CCCCCNC(=O)OCC1c2ccccc2-c2ccccc21)C(=O)N[C@@H](Cc1ccc(OC(C)(C)C)cc1)C(=O)N[C@@H](C)C(=O)N[C@@H](CCCNC(=N)NS(=O)(=O)c1c(C)c(C)c2c(c1C)CC(C)(C)O2)C(=O)N[C@@H](CCCC)C(=O)NCC(=O)N[C@@H](CCCNC(=N)NS(=O)(=O)c1c(C)c(C)c2c(c1C)CC(C)(C)O2)C(=O)N[C@@](C)(CCCCCC#C)C(=O)N[C@@H](CC(C)C)C(=O)N[C@@H](CCCCNC(=O)OC(C)(C)C)C(=O)N[C@@H](CCC(=O)OC(C)(C)C)C(=O)N[C@H](C(=O)N[C@@H](C)C(=O)N[C@@H](CCCCNC(=O)OC(C)(C)C)C(N)=O)[C@@H](C)CC` gave a ring closure, conversion by HPLC of 100%.

In the case of `C#CCCCCCC[C@@](C)(NC(=O)[C@H](CCCCNC(=O)OC(C)(C)C)NC(=O)[C@H](C)NC(=O)CCCCCNC(=O)OCC1c2ccccc2-c2ccccc21)C(=O)N[C@@H](Cc1ccc(OC(C)(C)C)cc1)C(=O)N[C@@H](C)C(=O)N[C@@H](CCCNC(=N)NS(=O)(=O)c1c(C)c(C)c2c(c1C)CC(C)(C)O2)C(=O)N[C@@H](CCCC)C(=O)NCC(=O)N[C@@H](CCCNC(=N)NS(=O)(=O)c1c(C)c(C)c2c(c1C)CC(C)(C)O2)C(=O)N[C@@](C)(CCCCCCC#C)C(=O)N[C@@H](CC(C)C)C(=O)N[C@@H](CCCCNC(=O)OC(C)(C)C)C(=O)N[C@@H](CCC(=O)OC(C)(C)C)C(=O)N[C@H](C(=O)N[C@@H](C)C(=O)N[C@@H](CCCCNC(=O)OC(C)(C)C)C(N)=O)[C@@H](C)CC`, the ring closure, conversion by HPLC in data set [2] (38-membered ring) was 100%.

In data set [2] (36-membered ring), `C#CCCCCC[C@@](C)(NC(=O)[C@H](CCCCNC(=O)OC(C)(C)C)NC(=O)[C@H](C)NC(=O)CCCCCNC(=O)OCC1c2ccccc2-c2ccccc21)C(=O)N[C@@H](Cc1ccc(OC(C)(C)C)cc1)C(=O)N[C@@H](C)C(=O)N[C@@H](CCCNC(=N)NS(=O)(=O)c1c(C)c(C)c2c(c1C)CC(C)(C)O2)C(=O)N[C@@H](CCCC)C(=O)NCC(=O)N[C@@H](CCCNC(=N)NS(=O)(=O)c1c(C)c(C)c2c(c1C)CC(C)(C)O2)C(=O)N[C@](C)(CCCCCC#C)C(=O)N[C@@H](CC(C)C)C(=O)N[C@@H](CCCCNC(=O)OC(C)(C)C)C(=O)N[C@@H](CCC(=O)OC(C)(C)C)C(=O)N[C@H](C(=O)N[C@@H](C)C(=O)N[C@@H](CCCCNC(=O)OC(C)(C)C)C(N)=O)[C@@H](C)CC` returned a ring closure, conversion by HPLC of 68%.

In data set [2] (36-membered ring), `C#CCCCCC[C@@](C)(NC(=O)[C@H](CCCCNC(=O)OC(C)(C)C)NC(=O)[C@H](C)NC(=O)CCCCCNC(=O)OCC1c2ccccc2-c2ccccc21)C(=O)N[C@@H](Cc1ccc(OC(C)(C)C)cc1)C(=O)N[C@@H](C)C(=O)N[C@@H](CCCNC(=N)NS(=O)(=O)c1c(C)c(C)c2c(c1C)CC(C)(C)O2)C(=O)N[C@@H](CCCC)C(=O)NCC(=O)N[C@@H](CCCNC(=N)NS(=O)(=O)c1c(C)c(C)c2c(c1C)CC(C)(C)O2)C(=O)N[C@@](C)(CCCCCC#C)C(=O)N[C@@H](CC(C)C)C(=O)N[C@@H](CCCCNC(=O)OC(C)(C)C)C(=O)N[C@@H](CCC(=O)OC(C)(C)C)C(=O)N[C@H](C(=O)N[C@@H](C)C(=O)N[C@@H](CCCCNC(=O)OC(C)(C)C)C(N)=O)[C@@H](C)CC` came in with a ring closure, conversion by HPLC of 94%.
